Data reported in patent US20240287005A1, “ISOXAZOLINE PESTICIDES” (Elanco Tiergesundheit AG, priority 2021, published 2024).

System: Ctenocephalides felis
Test: In vitro evaluation of contact activity against adult cat fleas
Settings: adult fleas in coated glass vial, after 48 h
Experimental: In vitro contact tests with […] are conducted with adult males and females of Ctenocephalides felis. For the coating of the test vials, the test substance is dissolved and diluted in acetone p.a. to the desired concentration. The solution is then homogeneously applied to the inner walls and base of a glass vial by turning and rocking on an orbital shaker until complete evaporation of the solvent. For example, with 900 ppm solution of test substance an area-based dose of 5 μg/cm^2 is achieved.
After the solvent is completely evaporated, approximately 10 adult fleas are applied to each coated test vial, which is then sealed with a perforated plastic lid and incubated in a horizontal position in the dark at room temperature and ambient humidity. Insecticidal activity is determined after 48 h. Fleas which remain motionless on the base of the test vial or move uncoordinated without occasionally jumping or walking straight are considered dead or moribund, respectively. An insecticidal activity of 100% means all fleas were dead or moribund. An insecticidal activity of 0% means none of the fleas was affected. From a dose response curve the respective EC50 was calculated (4-parameter logistic curve fitting).

Structure (SMILES): Cc1cc(C2=NOC(c3cc(C(F)(F)F)cc(C(F)(F)F)c3F)(C(F)(F)F)C2)ccc1C(=O)NCC(=O)NCC(F)(F)F (single isomer, unassigned) [Example 3.1]
- EC50 insecticidal activity (fleas dead or moribund): < 0.05 μg/cm^2
